Where a name gives a salt, the structure may show the parent alone. Read-outs that look alike come from different tables or passages of the source.
Columns and labels:
[1] = biological target: T1, human MCHR1 (Homo sapiens, UniProt Q99705); test: 125I-MCH competitive binding assay on clone 43 membranes (MCHR1 binding); details: competitive binding vs 100 pM 125I-MCH, clone 43 membranes (AV12 cells expressing MCHR1), Ki from IC50 by Cheng-Prusoff, tested in duplicate, read-out: MCHr Binding Ki
T1 construct: The full-length cDNA for human MCHR1 was cloned; expressed in transfected cells; host or cells: AV12 cells previously transfected with Gα15
Procedure: The full-length cDNA for human MCHR1 was cloned from a human adult brain cDNA library (Edge Biosystems, Cat. 38356) by standard polymerase chain reaction (PCR) methodology employing the following primers: sense, 5′-GCCACCATGGACCT GGAAGCCTCGCTGC-3′; anti-sense, 5′-[…]-3′. The PCR reaction was performed in a final volume of 50 μL containing 5 μL of a 10× stock solution of PCR buffer, 1 μL of 10 mM dNTP mixture (200 μM final), 2 μL of 50 mM Mg(SO4) (2 mM final), 0.5 μL of 20 μM solutions of each primer (0.2 μM final), 5 μL of template cDNA containing 0.5 ng DNA, 0.5 μL of Platinum Taq High Fidelity DNA polymerase (Gibco Life Technologies) and 36 μL of H2O. PCR amplification was performed on a Perkin Elmer 9600 thermocycler. After denaturation for 90 sec at 94° C., the amplification sequence consisting of 94° C. for 25 sec, 55° C. for 25 sec and 72° C. for 2 min was repeated 30 times, followed by a final elongation step at 72° C. for 10 min. The desired PCR product (1.1 Kb) was confirmed by agarose gel electrophoresis and the band was extracted from the gel by Geneclean (Bio101) following the manufacturer's instructions. Following extraction, the cDNA fragment was cloned into pCR2.1-TOPO plasmid (Invitrogen) to confirm the identity and sequence.
In order to generate cell lines stably expressing MCHR1, the insert was then subcloned into the Xba I and Not I sites of pcDNA(+)-3.1-neomycin (Invitrogen). After purification by Qiagen Maxi-prep kit (QIAGEN, Inc.), the plasmid was transfected by Fugene 6 (Roche Applied Science) into AV12 cells that had been previously transfected with the promiscuous G protein Gα15. The transfected cells were selected by G418 (800 μg/mL) for 10–14 days and single colonies were isolated from culture plates. The G418-resistant colonies were further selected for MCHR1 expression by measuring MCH-stimulated Ca^2+ transients with a fluorometric imaging plate reader (FLIPR, Molecular Devices).
Both the ^125I-MCH binding and functional GTPγ^35S binding assays employed membranes isolated from a clone designated as clone 43. Typically, cells from 20 confluent T225 flasks were processed by washing the monolayers in cold phosphate-buffered saline (PBS), scraping the cells into same and re-suspending the cell pellet in 35 mL of 250 mM Sucrose, 50 mM HEPES, pH 7.5, 1 mM MgCl2, 24 μg/mL DNase I, and protease inhibitors (1 Complete® tablet, per 50 ml of buffer prepared, Roche Diagnostics). After incubation on ice for 5 min, cells were disrupted with 20–25 strokes of a Teflon/Glass homogenizer attached to an overhead motorized stirrer, and the homogenate was centrifuged at 40,000 rpm in Beckman Type 70.1 Ti rotor. The pellets were re-suspended in 250 mM Sucrose, 50 mM HEPES, pH 7.5, 1.5 mM CaCl2, 1 mM MgSO4 and protease inhibitors by Teflon/Glass homogenization to achieve a protein concentration of ˜3–5 mg/ml (Pierce BCA assay with Bovine serum albumin as standard). Aliquots were stored at −70° C.
Binding of compounds to MCHR1 was assessed in a competitive binding assay employing ^125I-MCH, compound and clone 43 membranes. Briefly, assays are carried out in 96-well Costar 3632 white opaque plates in a total volume of 200 μl containing 25 mM HEPES, pH 7.5, 10 mM CaCl2, 2 mg/ml bovine serum albumin, 0.5% dimethyl sulfoxide (DMSO), 4 μg of clone 43 membranes, 100 pM ^125I-MCH (NEN), 1.0 mg of wheat germ agglutinin scintillation proximity assay beads (WGA-SPA beads, Amersham) and a graded dose of test compound. Non-specific binding is assessed in the presence of 1 μM unlabeled MCH. Bound ^125I-MCH is determined by placing sealed plates in a Microbeta Trilux (Wallac) and counting after a 5 hr delay.
IC50 values (defined as the concentration of test compound required to reduce specific binding of ^125I-MCH by 50%) are determined by fitting the concentration-response data to a 4-parameter model (max response, min response, Hill coefficient, IC50) using Excel. […]

T1 sequence (Q99705 whole entry): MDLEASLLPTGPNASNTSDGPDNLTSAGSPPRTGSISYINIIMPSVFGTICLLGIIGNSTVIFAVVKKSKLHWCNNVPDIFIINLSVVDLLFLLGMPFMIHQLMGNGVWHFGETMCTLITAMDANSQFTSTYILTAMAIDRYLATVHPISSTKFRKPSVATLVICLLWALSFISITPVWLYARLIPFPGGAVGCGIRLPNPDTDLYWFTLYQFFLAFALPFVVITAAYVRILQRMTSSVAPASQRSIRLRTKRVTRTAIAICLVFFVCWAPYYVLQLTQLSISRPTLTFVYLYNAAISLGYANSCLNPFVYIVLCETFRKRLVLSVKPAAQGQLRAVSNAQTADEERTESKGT

Row | Compound | melting point | Ki [1] | Ki ([1]; oxalate)
1 | CN(C)CCNC(=O)c1ccccc1-c1cccc(CSCCOc2ccccc2)c1.Cl | 150 to 153 °C | – | –
2 | CN(C)CCNC(=O)c1ccccc1-c1ccccc1CSCCOc1ccccc1.O=C(O)C(=O)O | 46 to 50 °C | – | –
3 | CN(C)CCCCNC(=O)c1ccccc1-c1ccccc1CSCCOc1ccccc1.O=C(O)C(=O)O | 64 to 70 °C | – | –
4 | CN(C)CCNC(=O)c1ccccc1-c1ccc(CSCCOc2ccccc2)cc1.O=C(O)C(=O)O | 109 to 113 °C | – | –
5 | 2′-(2-phenoxy-ethylsulfanylmethyl)-biphenyl-3-carboxylic acid (4-dimethylamino-butyl)-amide oxalate [Example 22] | – | 10.8 µM | –
6 | 4′-(2-phenoxy-ethylsulfanylmethyl)-biphenyl-4-carboxylic acid (2-dimethylamino-ethyl)-amide oxalate [Example 4] | – | – | 11.7 µM
7 | CN(C)CCCNC(=O)c1ccc(-c2ccc(CSCCOc3ccccc3)cc2)cc1 (as salt: hydrochloride) | 112 to 115 °C | – | –
8 | CN(C)CCCNC(=O)c1cccc(-c2ccc(CSCCOc3ccccc3)cc2)c1.O=C(O)C(=O)O [Example 1, 4′-(2-phenoxy-ethylsulfanylmethyl)-biphenyl-3-carboxylic acid(3-dimethylamino-propyl)-amide oxalate] | 132 to 133.5 °C | 5.04 µM | –
9 | CN(C)CCNC(=O)c1cccc(-c2ccc(CSCCOc3ccccc3)cc2)c1.O=C(O)C(=O)O [Example 2, 4′-(2-phenoxy-ethylsulfanylmethyl)-biphenyl-3-carboxylic acid (2-dimethylamino-ethyl)-amide oxalate] | 88 to 93 °C | 7.52 µM | –
10 | CN(C)CCCCNC(=O)c1cccc(-c2ccc(CSCCOc3ccccc3)cc2)c1.O=C(O)C(=O)O [Example 3, 4′-(2-phenoxy-ethylsulfanylmethyl)-biphenyl-3-carboxylic acid (4-dimethylamino-butyl)-amide oxalate] | 144 to 147 °C | 10.7 µM | –
11 | CN(C)CCCCNC(=O)c1ccc(-c2ccc(CSCCOc3ccccc3)cc2)cc1.O=C(O)C(=O)O [Example 6, 4′-(2-phenoxy-ethylsulfanylmethyl)-biphenyl-4-carboxylic acid (4-dimethylamino-butyl)-amide oxalate] | 142 to 147 °C | 10.1 µM | –
12 | CN(C)CCCCNC(=O)c1ccccc1-c1ccc(CSCCOc2ccccc2)cc1.O=C(O)C(=O)O [Example 9, 4′-(2-phenoxy-ethylsulfanylmethyl)-biphenyl-2-carboxylic acid (4-dimethylamino-butyl)-amide oxalate] | 72 to 76 °C | 16.3 µM | –
13 | CN(C)CCCNC(=O)c1cccc(-c2cccc(CSCCOc3ccccc3)c2)c1.O=C(O)C(=O)O [Example 13, 3′-(2-phenoxy-ethylsulfanylmethyl)-biphenyl-3-carboxylic acid (3-dimethylamino-propyl)-amide oxalate] | 51 to 53 °C | 8.76 µM | –
14 | CN(C)CCNC(=O)c1ccc(-c2cccc(CSCCOc3ccccc3)c2)cc1 [Example 14, 3′-(2-phenoxy-ethylsulfanylmethyl)-biphenyl-4-carboxylic acid (2-dimethylamino-ethyl)-amide] | 75 to 78 °C | 1.47 µM | –
15 | CN(C)CCCNC(=O)c1ccc(-c2cccc(CSCCOc3ccccc3)c2)cc1.O=C(O)C(=O)O [Example 15, 3′-(2-phenoxy-ethylsulfanylmethyl)-biphenyl4-carboxylic acid (3-dimethylamino-propyl)-amide oxalate] | 133 to 137 °C | 1.95 µM | –
16 | CN(C)CCCCNC(=O)c1ccc(-c2cccc(CSCCOc3ccccc3)c2)cc1.O=C(O)C(=O)O [Example 16, 3′-(2-phenoxy-ethylsulfanylmethyl)-biphenyl4-carboxylic acid (4-dimethylamino-butyl)-amide oxalate] | 85 to 89 °C | 8.96 µM | –
17 | CN(C)CCNC(=O)c1cccc(-c2ccccc2CSCCOc2ccccc2)c1.O=C(O)C(=O)O [Example 20, 2′-(2-phenoxy-ethylsulfanylmethyl)-biphenyl-3-carboxylic acid (2-dimethylamino-ethyl)-amide oxalate] | 96 to 100 °C | 11.4 µM | –
18 | CN(C)CCCNC(=O)c1cccc(-c2ccccc2CSCCOc2ccccc2)c1.O=C(O)C(=O)O [Example 21, 2′-(2-phenoxy-ethylsulfanylmethyl)-biphenyl-3-carboxylic acid (3-dimethylamino-propyl)-amide oxalate] | 97 to 100 °C | 8.55 µM | –
19 | CN(C)CCNC(=O)c1ccc(-c2ccccc2CSCCOc2ccccc2)cc1 [Example 23, 2′-(2-phenoxy-ethylsulfanylmethyl)-biphenyl4-carboxylic acid (2-dimethylamino-ethyl)-amide] | 93 to 96 °C | 7.2 µM | –
20 | CN(C)CCCNC(=O)c1ccc(-c2ccccc2CSCCOc2ccccc2)cc1 [Example 24, 2′-(2-phenoxy-ethylsulfanylmethyl)-biphenyl4-carboxylic acid (3-dimethylamino-propyl)-amide] | 98 to 100 °C | 6.13 µM | –
21 | CN(C)CCCCNC(=O)c1ccc(-c2ccccc2CSCCOc2ccccc2)cc1 [Example 25, 2′-(2-phenoxy-ethylsulfanylmethyl)-biphenyl4-carboxylic acid (4-dimethylamino-butyl)-amide] | – | 6.89 µM | –
